Measured values from paper PMC10165104, “The immunosuppressive effects and mechanisms of loureirin B on collagen-induced arthritis in rats” (Frontiers in Immunology, 2023).

Target: T1, Kv1.3 (mKv1.3) voltage-gated potassium channel (Mus musculus, UniProt P16390)
T1 construct: gene Kcna3
Assay: whole-cell voltage clamp of mKv1.[…] expressed in HEK293T cells
Type: cell-based

T1 sequence (P16390 whole entry): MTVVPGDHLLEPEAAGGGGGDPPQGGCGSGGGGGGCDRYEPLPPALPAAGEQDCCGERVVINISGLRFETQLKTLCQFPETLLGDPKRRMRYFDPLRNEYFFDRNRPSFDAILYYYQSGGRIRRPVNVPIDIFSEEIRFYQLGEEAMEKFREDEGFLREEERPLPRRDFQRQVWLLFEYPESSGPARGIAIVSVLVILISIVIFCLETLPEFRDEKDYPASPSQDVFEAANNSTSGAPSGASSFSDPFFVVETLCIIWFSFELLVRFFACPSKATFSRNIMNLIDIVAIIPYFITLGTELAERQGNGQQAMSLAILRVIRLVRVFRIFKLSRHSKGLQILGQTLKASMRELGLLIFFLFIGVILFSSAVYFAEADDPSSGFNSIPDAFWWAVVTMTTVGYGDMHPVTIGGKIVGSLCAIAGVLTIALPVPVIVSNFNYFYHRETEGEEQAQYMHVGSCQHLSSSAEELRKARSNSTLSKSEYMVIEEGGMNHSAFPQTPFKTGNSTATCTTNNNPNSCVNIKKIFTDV

COc1cc(OC)c(CCC(=O)c2ccc(O)cc2)c(OC)c1 [LrB, Loureirin B]
IC50: 6.33 ± 0.49 µM
